Reference: the supplement of paper PMC10307832

Experiments:
Assay in all cases: relative viability (nuclei count vs DMSO), 5 days (fraction); higher = more cells survive
DM3189 + Linsitinib = compound: C1CN(CCN1)C2=CC=C(C=C2)C3=CN4C(=C(C=N4)C5=CC=NC6=CC=CC=C56)N=C3 [DM3189] + C[C@]1(O)C[C@@H](c2nc(-c3ccc4ccc(-c5ccccc5)nc4c3)c3c(N)nccn32)C1 [Linsitinib] (partner 1 µM)
In short: (§1)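 A single step with final 0.05% Triton X-100, 1% formaldehyde and 1 ug/ml Hoechst fixed the cells and stained nuclei 5 days after treatment. Lung cancer cell lines in 1536-well plates had been treated by pin tool the day after seeding with one drug alone or a fixed anchor-drug dose plus five library-drug doses (not always all listed) in √10 steps, and nuclei were counted on 4× images. Relative viability is the ratio of nuclei in treated wells to nuclei in vehicle wells, taken as the median of duplicate plates.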

DM3189 + Lapatinib = compound: C1CN(CCN1)C2=CC=C(C=C2)C3=CN4C(=C(C=N4)C5=CC=NC6=CC=CC=C56)N=C3 [DM3189] + CS(=O)(=O)CCNCc1ccc(-c2ccc3ncnc(Nc4ccc(OCc5cccc(F)c5)c(Cl)c4)c3c2)o1 [Lapatinib] (partner 2 µM)
In short: as §1

DM3189 + Foretinib = compound: C1CN(CCN1)C2=CC=C(C=C2)C3=CN4C(=C(C=N4)C5=CC=NC6=CC=CC=C56)N=C3 [DM3189] + COc1cc2c(Oc3ccc(NC(=O)C4(C(=O)Nc5ccc(F)cc5)CC4)cc3F)ccnc2cc1OCCCN1CCOCC1 [Foretinib] (partner 0.25 µM)
In short: as §1

DM3189 + Olaparib = compound: C1CN(CCN1)C2=CC=C(C=C2)C3=CN4C(=C(C=N4)C5=CC=NC6=CC=CC=C56)N=C3 [DM3189] + O=C(c1cc(Cc2n[nH]c(=O)c3ccccc23)ccc1F)N1CCN(C(=O)C2CC2)CC1 [Olaparib] (partner 8 µM)
In short: as §1

DM3189 + Crizotinib = compound: C1CN(CCN1)C2=CC=C(C=C2)C3=CN4C(=C(C=N4)C5=CC=NC6=CC=CC=C56)N=C3 [DM3189] + C[C@@H](Oc1cc(-c2cnn(C3CCNCC3)c2)cnc1N)c1c(Cl)ccc(F)c1Cl [Crizotinib] (partner 1 µM)
In short: as §1

DM3189 + Bortezomib = compound: C1CN(CCN1)C2=CC=C(C=C2)C3=CN4C(=C(C=N4)C5=CC=NC6=CC=CC=C56)N=C3 [DM3189] + CC(C)C[C@H](NC(=O)[C@H](Cc1ccccc1)NC(=O)c1cnccn1)B(O)O [Bortezomib] (partner 0.002 µM)
In short: as §1

DM3189 + Alpelisib = compound: C1CN(CCN1)C2=CC=C(C=C2)C3=CN4C(=C(C=N4)C5=CC=NC6=CC=CC=C56)N=C3 [DM3189] + Cc1nc(NC(=O)N2CCC[C@H]2C(N)=O)sc1-c1ccnc(C(C)(C)C(F)(F)F)c1 [Alpelisib] (partner 2 µM)
In short: as §1

DM3189 + AZD7762 = compound: C1CN(CCN1)C2=CC=C(C=C2)C3=CN4C(=C(C=N4)C5=CC=NC6=CC=CC=C56)N=C3 [DM3189] + NC(=O)Nc1cc(-c2cccc(F)c2)sc1C(=O)N[C@H]1CCCNC1 [AZD7762] (partner 0.2 µM)
In short: as §1

DM3189 + Navitoclax = compound: C1CN(CCN1)C2=CC=C(C=C2)C3=CN4C(=C(C=N4)C5=CC=NC6=CC=CC=C56)N=C3 [DM3189] + CC1(C)CCC(c2ccc(Cl)cc2)=C(CN2CCN(c3ccc(C(=O)NS(=O)(=O)c4ccc(N[C@H](CCN5CCOCC5)CSc5ccccc5)c(S(=O)(=O)C(F)(F)F)c4)cc3)CC2)C1 [Navitoclax] (partner 0.5 µM)
In short: as §1

DM3189 + Pictilisib = compound: C1CN(CCN1)C2=CC=C(C=C2)C3=CN4C(=C(C=N4)C5=CC=NC6=CC=CC=C56)N=C3 [DM3189] + CS(=O)(=O)N1CCN(Cc2cc3nc(-c4cccc5[nH]ncc45)nc(N4CCOCC4)c3s2)CC1 [Pictilisib] (partner 1 µM)
In short: as §1

DM3189 = compound: C1CN(CCN1)C2=CC=C(C=C2)C3=CN4C(=C(C=N4)C5=CC=NC6=CC=CC=C56)N=C3 [DM3189]
In short: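 Vehicle-anchored 1536-well plates of lung cancer cell lines, held overnight at 37 °C, were pinned with five library-drug doses (not always all listed) spaced by √10. No medium change followed over the next 5 days, after which the cells were fixed, permeabilised and Hoechst-stained together and imaged at 4×. Nuclei were counted with MetaXpress, and viability is treated-well nuclei over vehicle-well nuclei, taken as a median across plates. Plates passed with control CV below 25% and at least one doubling.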

NCI-H1703 showed a relative viability (DM3189 + Linsitinib; first compound 0.08 µM) of 0.597, a relative viability (DM3189 + Linsitinib; first compound 0.253 µM) of 0.635 and a relative viability (DM3189 + Linsitinib; first compound 0.8 µM) of 0.575. It also gave a relative viability (DM3189 + Linsitinib; first compound 2.53 µM) of 0.693, a relative viability (DM3189 + Lapatinib; first compound 0.08 µM) of 1.2 and a relative viability (DM3189 + Lapatinib; first compound 0.253 µM) of 1.15. The relative viability (DM3189 + Lapatinib; first compound 0.8 µM) was 1.17, the relative viability (DM3189 + Lapatinib; first compound 2.53 µM) was 1.14 and the relative viability (DM3189 + Foretinib; first compound 0.08 µM) was 0.37. It also gave a relative viability (DM3189 + Foretinib; first compound 0.253 µM) of 0.443, a relative viability (DM3189 + Foretinib; first compound 0.8 µM) of 0.395 and a relative viability (DM3189 + Foretinib; first compound 2.53 µM) of 0.263. The relative viability (DM3189 + Olaparib; first compound 0.08 µM) was 0.397, the relative viability (DM3189 + Olaparib; first compound 0.253 µM) was 0.466 and the relative viability (DM3189 + Olaparib; first compound 0.8 µM) was 0.429. It also gave a relative viability (DM3189 + Olaparib; first compound 2.53 µM) of 0.446, a relative viability (DM3189 + Crizotinib; first compound 0.08 µM) of 0.763 and a relative viability (DM3189 + Crizotinib; first compound 0.253 µM) of 0.747. For the same cell line, the relative viability (DM3189 + Crizotinib; first compound 0.8 µM) was 0.524, the relative viability (DM3189 + Crizotinib; first compound 2.53 µM) was 0.548 and the relative viability (DM3189 + Bortezomib; first compound 0.08 µM) was 0.365. It also gave a relative viability (DM3189 + Bortezomib; first compound 0.253 µM) of 0.292, a relative viability (DM3189 + Bortezomib; first compound 0.8 µM) of 0.326 and a relative viability (DM3189 + Bortezomib; first compound 2.53 µM) of 0.298. The relative viability (DM3189 + Alpelisib; first compound 0.08 µM) was 0.389, the relative viability (DM3189 + Alpelisib; first compound 0.253 µM) was 0.366 and the relative viability (DM3189 + Alpelisib; first compound 0.8 µM) was 0.384. The relative viability (DM3189 + Alpelisib; first compound 2.53 µM) was 0.285, the relative viability (DM3189 + AZD7762; first compound 0.08 µM) was 0.122 and the relative viability (DM3189 + AZD7762; first compound 0.253 µM) was 0.191. It also gave a relative viability (DM3189 + AZD7762; first compound 0.8 µM) of 0.119, a relative viability (DM3189 + AZD7762; first compound 2.53 µM) of 0.135 and a relative viability (DM3189 + Navitoclax; first compound 0.08 µM) of 1.08. For the same cell line, the relative viability (DM3189 + Navitoclax; first compound 0.253 µM) was 1.05, the relative viability (DM3189 + Navitoclax; first compound 0.8 µM) was 1 and the relative viability (DM3189 + Navitoclax; first compound 2.53 µM) was 0.709. For the same cell line, the relative viability (DM3189 + Pictilisib; first compound 0.08 µM) was 0.28, the relative viability (DM3189 + Pictilisib; first compound 0.253 µM) was 0.205 and the relative viability (DM3189 + Pictilisib; first compound 0.8 µM) was 0.257. The relative viability (DM3189 + Pictilisib; first compound 2.53 µM) was 0.257, the relative viability (DM3189; 0.08 µM) was 0.951 and the relative viability (DM3189; 0.253 µM) was 0.916. The relative viability (DM3189; 0.8 µM) was 0.825 and the relative viability (DM3189; 2.53 µM) was 0.767.
